Experimental data: patent US20230295096A1, “PYRAZOLE CARBOXAMIDE COMPOUNDS FOR TREATMENT OF HBV” (ASSEMBLY BIOSCIENCES, INC., priority 2020, published 2023)

Test system: HBV
Assay: Viral load production from HepAD38 cells, qPCR of the HBV core sequence in supernatant
Type: cell-based
Settings: Hepatitis B virus, HePAD38, 120 h, HepAD38 cells, 5 days, HBV DNA in supernatant by qPCR; Table 1 ranges; read-out: Activity (viral load lowering EC50)
Method: HepAD38 cells grown in a T-150 flask (Corning, cat#: 430825) with Growth Medium (DMEM/F12 (1:1) (Hyclone, cat#: SH30023.02), 1X Pen/Strep (Invitrogen, cat#: 15140-122), 10% FBS (Tissue Culture Biologics, cat#: 101), 250 µg/mL G418 (Alfa Aesar, cat#: J62671), 1 µg/mL Tetracycline (Teknova, cat#: T3320)) were detached with 0.25% trypsin-EDTA (Invitrogen, cat#: 25200-056). Tetracycline-free treatment medium (15 mL DMEM/F12 (1:1) 1× Pen/step, with 2% FBS, Tet-system approved (Clontech, cat#: 631106) were then added to mix, transferred into a 50 ml conical tube (Falcon, cat#: 21008-918,) and spun at 1300 rpm for 5 min. Pelleted cells were then re-suspended/washed with 50 mL of 1X DPBS (Invitrogen, cat#: 14190-136) 2 times and 50 mL treatment medium twice. HepAD38 cells were then re-suspended with 10 mL of treatment medium, syringed and counted. Wells of 96-well clear bottom TC plate (Corning, cat#: 3904,) were seeded at 50.000 cells/well in 180 µL of treatment medium, and 20 µL of either 10% DMSO (Sigma, cat#: D4540) as controls or a 10X solution of test compounds in 10% DMSO in treatment media was added for a final compound concentration starting at 10 µM, and plates were incubated in 5% CO2 incubator at 37° C. for 5 days.
Subsequently viral load production was assayed by quantitative PCR (qPCR) of the HBV core sequence. PCR reaction mixture containing forward primers HBV-f 5′-CTGTGCCTTGGGTGGCTTT-3′ (IDT DNA), Reverse primers HBV-r 5′-[…]-3′ (IDT DNA), Fluorescent TaqMan^tm Probes HBV-probe 5′-FAM/AGCTCCAAA/ZEN/[…]/3IABkFQ-3′ (IDT DNA), 10 µL/well of PerfeCTa® qPCR ToughMix® (Quanta Biosciences, Cat#: 95114-05 K), and 6 µL/well of DEPC water (Alfa Aesar, cat#: J62087) was prepared. Four µL of supernatant was added to 16 µL of the reaction mixture in a qPCR plate (Applied Biosytems, Cat#: 4309849), sealed with a film (Applied Biosystems, Cat#: 4311971), centrifuged for a few seconds, and subsequently run on an Applied Biosystems VIIA7. The PCR mixture was incubated at 45° C. for 5 min, then 95° C. for 10 min, followed by 40 cycles of 10 seconds at 95° C. and 20 seconds at 60° C. Viral load was quantified against known HBV DNA standards by using ViiA™ 7 Software. Viral load in the supernatant from wells with treated cells were compared against viral load in supernatant from DMSO control wells (≥ 3 per plate). Cell viability assay was performed with CellTiter-Glo Luminescent Cell Viability Assay (Promega, cat#: G7573) with modification. Mixed appropriate amount of CellTiter-Glo (CTG) 1X DPBS in a 1:1 ratio, added 100 uL of the mixture to each well followed completely removal of all supernatant in each well without touching cell surface. Incubated the plate at room temperature for 10 min on an orbital shaker, and then read the plate with a plate reader (TECAN M1000 or Envision). EC50 or CC50 values were calculated through curve-fitting of the four-parameter nonlinear-logistic-regression model (GraphPad Prism or Dotmatics). CC50 values were all >10 µM.

SMILES | EC50 [µM]
C#CC1(O)CC2CC(c3nn(C)c(N)c3C(=O)Nc3ccc(F)c(Cl)c3)CC2C1 (stereo not drawn) [Example 22, 5-Amino-N-(3-chloro-4-fluorophenyl)-3-(5-ethynyl-5-hydroxyoctahydropentalen-2-yl)-1-methyl-1H-pyrazole-4-carboxamide] | < 0.01
Cn1cc(C2(O)CC3CC(c4nn(C)c(N)c4C(=O)Nc4ccc(F)c(Cl)c4)CC3C2)nn1 (stereo not drawn) [Example 23, 5-Amino-N-(3-chloro-4-fluorophenyl)-3-(5-hydroxy-5-(1-methyl-1H-1,2,3-triazol-4-yl)octahydropentalen-2-yl)-1-methyl-1H-pyrazole-4-carboxamide] | < 0.01
Cn1nc(C2CC3CC(O)(c4c(Br)nnn4C)CC3C2)c(C(=O)Nc2ccc(F)c(Cl)c2)c1N (stereo not drawn) [Example 24, 5-Amino-3-(5-(4-bromo-1-methyl-1H-1,2,3-triazol-5-yl)-5-hydroxyoctahydropentalen-2-yl)-N-(3-chloro-4-fluorophenyl)-1-methyl-1H-pyrazole-4-carboxamide] | < 0.01
Cn1nncc1C1(O)CC2CC(c3nn(C)c(N)c3C(=O)Nc3ccc(F)c(Cl)c3)CC2C1 (stereo not drawn) [Example 25, 5-Amino-N-(3-chloro-4-fluorophenyl)-3-(5-hydroxy-5-(1-methyl-1H-1,2,3-triazol-5-yl)octahydropentalen-2-yl)-1-methyl-1H-pyrazole-4-carboxamide] | < 0.01
Cn1nccc1C1(O)CC2CC(c3nn(C)c(N)c3C(=O)Nc3ccc(F)c(Cl)c3)CC2C1 (stereo not drawn) [Example 26, 5-Amino-N-(3-chloro-4-fluorophenyl)-3-(5-hydroxy-5-(1-methyl-1H-pyrazol-5-yl)octahydropentalen-2-yl)-1-methyl-1H-pyrazole-4-carboxamide] | < 0.01
Cn1nc(C2CC3CC(O)(c4c[nH]cn4)CC3C2)c(C(=O)Nc2ccc(F)c(Cl)c2)c1N (stereo not drawn) [Example 27, 5-Amino-N-(3-chloro-4-fluorophenyl)-3-(5-hydroxy-5-(1H-imidazol-4-yl)octahydropentalen-2-yl)-1-methyl-1H-pyrazole-4-carboxamide] | 0.01 to 0.05
Cn1nc(C2CC3CC(O)(c4cn[nH]c4)CC3C2)c(C(=O)Nc2ccc(F)c(Cl)c2)c1N (stereo not drawn) [Example 28, 5-Amino-N-(3-chloro-4-fluorophenyl)-3-(5-hydroxy-5-(1H-pyrazol-4-yl)octahydropentalen-2-yl)-1-methyl-1H-pyrazole-4-carboxamide] | 0.01 to 0.05
Cn1nc(C2CC3CC(F)(CC(F)F)CC3C2)c(C(=O)Nc2ccc(F)c(Cl)c2)c1N (stereo not drawn) [Example 29, 5-Amino-N-(3-chloro-4-fluorophenyl)-3-(5-(2,2-difluoroethyl)-5-fluorooctahydropentalen-2-yl)-1-methyl-1H-pyrazole-4-carboxamide] | 0.01 to 0.05
Cn1nc(C2CC3CC(O)(C(F)F)CC3C2)c(C(=O)Nc2ccc(F)c(Cl)c2)c1N (stereo not drawn) [Example 30, 5-Amino-N-(3-chloro-4-fluorophenyl)-3-(5-(difluoromethyl)-5-hydroxyoctahydropentalen-2-yl)-1-methyl-1H-pyrazole-4-carboxamide] | 0.01 to 0.05
Cn1nc(C2CC3CC(O)(C(F)(F)F)CC3C2)c(C(=O)Nc2ccc(F)c(Cl)c2)c1N (stereo not drawn) [Example 31, 5-Amino-N-(3-chloro-4-fluorophenyl)-3-(5-hydroxy-5-(trifluoromethyl)octahydropentalen-2-yl)-1-methyl-1H-pyrazole-4-carboxamide] | 0.01 to 0.05
Cn1nc(C2CC3CC(O)(C(F)(F)C(F)(F)F)CC3C2)c(C(=O)Nc2ccc(F)c(Cl)c2)c1N (stereo not drawn) [Example 32, 5-Amino-N-(3-chloro-4-fluorophenyl)-3-(5-hydroxy-5-(perfluoroethyl)octahydropentalen-2-yl)-1-methyl-1H-pyrazole-4-carboxamide] | 0.01 to 0.05
Cn1nc(C2CC3CC(O)(C(F)(F)S(=O)(=O)c4ccccc4)CC3C2)c(C(=O)Nc2ccc(F)c(Cl)c2)c1N (stereo not drawn) [Example 33, 5-Amino-N-(3-chloro-4-fluorophenyl)-3-(5-(difluoro(phenylsulfonyl)methyl)-5-hydroxyoctahydropentalen-2-yl)-1-methyl-1H-pyrazole-4-carboxamide] | 0.01 to 0.05
Cn1nc(C2CC3CC(O)(C(F)(F)S(=O)(=O)c4ccc(Cl)cc4)CC3C2)c(C(=O)Nc2ccc(F)c(Cl)c2)c1N (stereo not drawn) [Example 34, 5-Amino-N-(3-chloro-4-fluorophenyl)-3-(5-(((4-chlorophenyl)sulfonyl)difluoromethyl)-5-hydroxyoctahydropentalen-2-yl)-1-methyl-1H-pyrazole-4-carboxamide] | 0.01 to 0.05
Cc1ccc(S(=O)(=O)C(F)(F)C2(O)CC3CC(c4nn(C)c(N)c4C(=O)Nc4ccc(F)c(Cl)c4)CC3C2)cc1 (stereo not drawn) [Example 35, 5-Amino-N-(3-chloro-4-fluorophenyl)-3-(5-(difluoro(tosyl)methyl)-5-hydroxyoctahydropentalen-2-yl)-1-methyl-1H-pyrazole-4-carboxamide] | 0.01 to 0.05
Cc1ccc([S+]([O-])C(F)(F)C2(O)CC3CC(c4nn(C)c(N)c4C(=O)Nc4ccc(F)c(Cl)c4)CC3C2)cc1 (stereo not drawn) [Example 36, 5-Amino-N-(3-chloro-4-fluorophenyl)-3-(5-(difluoro(p-tolylsulfinyl)methyl)-5-hydroxyoctahydropentalen-2-yl)-1-methyl-1H-pyrazole-4-carboxamide] | 0.01 to 0.05
Cn1nc(C2CC3CC(O)(CS(=O)(=O)c4cccc(F)c4)CC3C2)c(C(=O)Nc2ccc(F)c(Cl)c2)c1N (stereo not drawn) [Example 37, 5-Amino-N-(3-chloro-4-fluorophenyl)-3-(5-(((3-fluorophenyl)sulfonyl)methyl)-5-hydroxyoctahydropentalen-2-yl)-1-methyl-1H-pyrazole-4-carboxamide] | < 0.01
Cn1cnc(C(=O)NCC2CC3CC(c4nn(C)c(N)c4C(=O)Nc4ccc(F)c(Cl)c4)CC3C2)c1 (stereo not drawn) [Example 38, 5-Amino-N-(3-chloro-4-fluorophenyl)-1-methyl-3-(5-((1-methyl-1H-imidazole-4-carboxamido)methyl)octahydropentalen-2-yl)-1H-pyrazole-4-carboxamide] | < 0.01
CC(C)C(=O)NCC1CC2CC(c3nn(C)c(N)c3C(=O)Nc3ccc(F)c(Cl)c3)CC2C1 (stereo not drawn) [Example 45, 5-Amino-N-(3-chloro-4-fluorophenyl)-3-(5-(isobutyramidomethyl)octahydropentalen-2-yl)-1-methyl-1H-pyrazole-4-carboxamide] | < 0.01
Cn1nc(C2CC3CC(CNC(=O)C4CCC4)CC3C2)c(C(=O)Nc2ccc(F)c(Cl)c2)c1N (stereo not drawn) [Example 46, 5-Amino-N-(3-chloro-4-fluorophenyl)-3-(5-(cyclobutanecarboxamidomethyl)octahydropentalen-2-yl)-1-methyl-1H-pyrazole-4-carboxamide] | < 0.01
Cn1nc(C2CC3CC(CNC(=O)C4CCCC4)CC3C2)c(C(=O)Nc2ccc(F)c(Cl)c2)c1N (stereo not drawn) [Example 47, 5-Amino-N-(3-chloro-4-fluorophenyl)-3-(5-(cyclopentanecarboxamidomethyl)octahydropentalen-2-yl)-1-methyl-1H-pyrazole-4-carboxamide] | < 0.01
COC(=O)NCC1CC2CC(c3nn(C)c(N)c3C(=O)Nc3ccc(F)c(Cl)c3)CC2C1 (stereo not drawn) [Example 48, Methyl ((5-(5-amino-4-((3-chloro-4-fluorophenyl)carbamoyl)-1-methyl-1H-pyrazol-3-yl)octahydropentalen-2-yl)methyl)carbamate] | < 0.01
